# Where two headings read alike, the source gives them in different places.
# Columns and labels:
# Phytophthora infestans [1] = assay type: in vivo; details: tomato leaves, 6 days after infection
# Phytophthora infestans [2] = assay type: in vivo; details: tomato leaves, 6 days after infection; remark: listed apart in the source
smiles,measurement,setting,value
"O=S(=O)([O-])[O-].[Cu+2].[Cu+2].[Cu+2].[Cu+2].[OH-].[OH-].[OH-].[OH-].[OH-].[OH-] [II.1, tribasic copper sulfate 3Cu(OH)2xCuSO4]",Efficiency in % of the untreated control,Phytophthora infestans [1]; 12.5 ppm active compound in the spray liquor,0%
same,Efficiency in % of the untreated control,Phytophthora infestans [1]; 25 ppm active compound in the spray liquor,0%
same,Efficiency in % of the untreated control,Phytophthora infestans [1]; 50 ppm active compound in the spray liquor,0%
same,Efficiency in % of the untreated control,Phytophthora infestans [1]; 100 ppm active compound in the spray liquor,10%
same,Efficiency in % of the untreated control,Phytophthora infestans [2]; Conc. 12.5 ppm,0%
same,Efficiency in % of the untreated control,Phytophthora infestans [2]; Conc. 25 ppm,8%
same,Efficiency in % of the untreated control,Phytophthora infestans [2]; Conc. 50 ppm,8%
same,Efficiency in % of the untreated control,Phytophthora infestans [2]; Conc. 100 ppm,8%
same,Efficiency in % of the untreated control,Phytophthora infestans [2]; Conc. 200 ppm,8%

# Reference: patent US6503936B1 (priority 1998, dated 2003)
